# Experimental data from patent publication US20250275940A1, “PTEROSTILBENE AND SILIBININ FOR PREVENTING, AMELIORATING OR REDUCING RADIATION-INDUCED DISEASES” (UNIVERSITAT DE VALÈNCIA, priority 2021, published 2025).
# Read-outs that look alike come from different tables or passages of the source.
# Legend:
# [1] = test system: Swiss albino mice subjected to whole-body γ irradiation; experiment: Survival of mice subjected to whole-body γ irradiation (LD50/30); assay type: in vivo; details: 6 days after γ radiation (LD50/30), compounds administered orally, FIG. 2A
# From the text: Swiss albino mice (male, 9-10 weeks old, 30-32 g) were obtained from Charles River Laboratories (Wilmington, MA). This strain is among the most common used in radiation studies (Williams 2010). Mice were fed with a nutritionally complete diet (standard diet, SD) before irradiation. This was A03 from Panlab (Barcelona, Spain), which has 3,200 kcal/kg and the following nutritional composition: crude protein, 23.5%; crude fat, 4.3%; crude fiber, 3.7%; and carbohydrates, 51.1%; vitamins and minerals were provided as in the NIH-7 open formula for rat and mouse. This diet meets the dietary allowances recommended for adult mice by the American Institute of Nutrition. The animals were fed ad libitum and kept in individual metabolic cages, in which body weight and food ingestion were monitored daily. The animal room was maintained at 22° C. on a 12 h light/12 h dark cycle. Ad libitum intake of drinking water was also allowed. Care of irradiated mice followed the recommendation of the Robert Wood Johnson Medical School (Piscataway, NJ) for mouse total body irradiation (policy 15), which includes: a) use of antibiotics in the drinking water (134 mg ampicillin/kg/day, 40 mg baytril/kg/day, and 220/42 mg sulfamethoxazole/trimethoprim/kg/day), b) making drinking water readily available, c) Napa nectar Systems Engineering Lab Group Inc., Napa, CA) provided on the bottom of the cage during the first 14 days and replaced daily, d) provision of softened food served in a small Petri dish on the cage floor, e) completely sterile environment (cage, food, and water) to avoid potential immunosuppression-associated infections. A free-standing wheel inside the cage was also included to facilitate the physical exercise of the animals. All experiments were started at 10.00 h to minimize possible circadian variations. Procedures involving animals were in compliance with international laws and policies (EEC Directive 86/609, OJ L 358. 1, Dec. 12, 1987; and NIH Guide for the Care and Use of Laboratory Animals, NIH Publ. No. 85-23, 1985). Mice were subjected to g-radiation (^137Cs) (total body irradiation, TBI) in a BIOBEAM 8000 (Gamma-Service Medical GmbH, Leipzig, Germany). Single fraction radiotherapy, at total doses ranging from approx. 5.0 to 10.0 Gy, was administered at a rate of approx. […]. The irradiation distance from the source was limited to 12 cm. Radiation dosimetry was controlled using alanine dosimeters from Bruker (Billerica, MA) with dosimetry variation of +/−0.09 Gy. […] NR (nicotinamide riboside, 3-aminocarbonyl-1-b-D-ribofuranosyl-pyridinium, Elysium Health, Inc., New York, NY) was dissolved in vaccination-grade water, and the pH of the solution neutralized (pH 7.0) before oral administration (185 mg/kg×day, Obrador 2020). FSL-1 (InvivoGen, San Diego, CA) was resuspended in sterile vaccination-grade water, and administered IP (0.25 mg/kg×day, the volume administered was of […] depending on the weight of the mouse, as recommended by Kurkjian 2017). Pharmaceutical grade amifostine (Ethyol) was obtained from Cumberland Pharmaceuticals (Nashville, TN) as 500 mg sterile lyophilized powder vial, and reconstituted with physiological saline prior to use.
# First, the effects of γ radiation and mice survival were studied. […] Mice received whole-body γ radiation (one single dose; ^137Cs, 0.5-0.6 Gy/min; Biobeam 8000, GSM GmbH). One Gy=absorption of 1 J of energy/kg of matter.
# Next, the thirty-days survival of mice treated with γ rays (LD50/30) and pterostilbene (PT) was analysed (FIG. 1B).
# [2] = Plasma and extravascular levels of pterostilbene after oral administration; assay type: in vivo; details: mice, 200 mg Pter/kg b.w. oral
# Procedure: Plasma and extravascular levels of pterostilbene after its oral administration to mice were studied. Mice were treated with 200 mg Pter/kg b.w. A group of 4-5 animals was sacrificed per each time point. Pter was dissolved in 2-hydroxypropyl-b-cyclodextrin, then suspended in 0.3% carboxymethylcellulose. Nondetectable=n.d. * P<0.1 comparing data obtained at 10-1440 min versus those found at 5 min.
# [3] = PT, SIL and NAD+ levels in circulating blood; details: treated and irradiated mice, FIG. 10A
# Procedure: Briefly, samples were analyzed through HPLC (Ultimate 3000, Thermo Fisher Scientific) and MS/MS (Waters TQ detector triple quadrupole) systems on a Hypurity™ C18 column (50×4.6 mm) using an injection volume of 5 μL. The mobile phases consisted of water (A) and acetonitrile (B). […] MS/MS data acquisition was performed under negative electrospray ionization mode. […] The fragmentary voltage was 150 V, and the collision energy 15 eV. Tissue sample preparation was as described for determination of PTER levels (above).
# Whole-blood samples (0.5 ml) were collected in sodium citrate tubes at 4° C. Then a whole-blood aliquot of 0.1 ml was transferred to a cryovial containing 0.9 ml of 0.5 M ice-cold perchloric acid to lyse all blood cells. Samples were centrifuged at 10,000 g×10 min (4° C.). Supernatants were stored at −80° C. until analyzed.
# [4] = test system: Swiss albino mice subjected to whole-body γ irradiation; experiment: Survival of mice subjected to whole-body γ irradiation (LD50/30); assay type: in vivo; details: dose of 100 mg/kg, orally once per day, 5 days before and 2 days after γ irradiation (7.2 Gy), FIG. 1B
# [5] = background statement; cited from earlier work
# [6] = Swiss albino, mouse, brain, 200 mg/kg b.w., read-out: Pter in Brain
# [7] = Swiss albino, mouse, kidney, 200 mg/kg b.w., read-out: Pter in Kidney
# [8] = Swiss albino, mouse, liver, 200 mg/kg b.w., read-out: Pter in Liver
# [9] = Swiss albino, mouse, lung, 200 mg/kg b.w., read-out: Pter in Lung
# [10] = Swiss albino, mouse, plasma, 200 mg/kg b.w., read-out: Pter in Plasma
smiles,measurement,setting,value
"COc1cc(/C=C/c2ccc(O)cc2)cc(OC)c1 [PT, 3,5-dimethoxy-4′-hydroxystilbene]",survival,[1],around 100%
same,concentration at 5 min,[2]; [6],2 ± 1 µM
same,concentration at 10 min,[2]; [6],6 ± 2 µM
same,concentration at 30 min,[2]; [6],10 ± 3 µM
same,concentration at 60 min,[2]; [6],24 ± 7 µM
same,concentration at 120 min,[2]; [6],14 ± 4 µM
same,concentration at 240 min,[2]; [6],8 ± 3 µM
same,concentration at 480 min,[2]; [6],3 ± 1 µM
same,concentration at 5 min,[2]; [7],1 ± 0.5 µM
same,concentration at 10 min,[2]; [7],4 ± 2 µM
same,concentration at 30 min,[2]; [7],6 ± 3 µM
same,concentration at 60 min,[2]; [7],10 ± 4 µM
same,concentration at 120 min,[2]; [7],8 ± 2 µM
same,concentration at 240 min,[2]; [7],2 ± 0.5 µM
same,concentration at 5 min,[2]; [8],3 ± 1 µM
same,concentration at 10 min,[2]; [8],8 ± 3 µM
same,concentration at 30 min,[2]; [8],11 ± 3 µM
same,concentration at 60 min,[2]; [8],17 ± 5 µM
same,concentration at 120 min,[2]; [8],12 ± 4 µM
same,concentration at 240 min,[2]; [8],7 ± 2 µM
same,concentration at 480 min,[2]; [8],1 ± 0.5 µM
same,concentration at 5 min,[2]; [9],7 ± 2 µM
same,concentration at 10 min,[2]; [9],15 ± 6 µM
same,concentration at 30 min,[2]; [9],23 ± 5 µM
same,concentration at 60 min,[2]; [9],35 ± 8 µM
same,concentration at 120 min,[2]; [9],21 ± 4 µM
same,concentration at 240 min,[2]; [9],12 ± 3 µM
same,concentration at 480 min,[2]; [9],2 ± 1 µM
same,concentration at 5 min,[2]; [10],5 ± 2 µM
same,concentration at 10 min,[2]; [10],18 ± 4 µM
same,concentration at 30 min,[2]; [10],55 ± 9 µM
same,concentration at 60 min,[2]; [10],98 ± 17 µM
same,concentration at 120 min,[2]; [10],46 ± 12 µM
same,concentration at 240 min,[2]; [10],21 ± 6 µM
same,concentration at 480 min,[2]; [10],14 ± 5 µM
same,concentration at 720 min,"[2]; Swiss albino, mouse, plasma, 200 mg/kg b.w., 720 min",1 ± 0.5 µM
same,time after administration at which Pterostilbene levels peak,[2]; all tissues studied,60 min
same,"PT levels in circulating blood, 30 min vs 120 min",[3],higher 30 min after
same,effect on improving survival (60 days) among doses,[4],best effect on improving survival
same,potency as antifungal agent relative to Resveratrol,[5],60-100 times
